Test results reported in patent publication EP1507010B1, “Control of the gene expression in eukaryotic cells” (priority 1999, dated 2001).

Key:
[1] = target: T1, HA-VP16-TraR fusion (TraR from Agrobacterium strain A348 fused to VP16 activation domain; pMON53030) (UniProt P06492+P33905); assay: Transient GUS reporter assay in transfected carrot protoplasts with VP16-TraR effector; assay type: cell-based, Agrobacterium tumefaciens; parameters: + inducer (average of the GUS activities) / + inducer (GUS activity, average) / GUS activity, average (with AHL or analog at the stated concentration) / GUS activity, average (+ inducer) / GUS activity, average: unit not given here; settings: for GUS activity, average ('- inducer'): 1 µM of the AHL or analog; for GUS activity, average ('- inducer') / GUS activity, average (with AHL or analog at the stated concentration) / GUS activity, average (+ inducer) / GUS activity, average / fold +/-: reporter TraA8(4X)-GUS + 35S-VP16-TraR; for GUS activity, average (with AHL or analog at the stated concentration): 5 µM of the AHL or analog; for + inducer (GUS activity, average): 12.5 µM C8-AHL; for GUS activity, average: 25 µM of the AHL or analog
T1 construct: PCR fragments containing open reading frames are cloned into an expression construct; expressed in transfected cells; host or cells: carrot protoplasts from cell suspension culture, transient transfection
Source text: Carrot protoplasts were transfected with the TraA8 (4X)- GUS reporter construct with the 35S-VP16-TraR activator gene and tested for GUS induction by application of wild type AHL and the various AHL analogs described in Example 8. Table 8: Transient assays in carrot protoplasts of AHL analogs

[2] = test system: HA-VP16-EsaR fusion (pMON53005); assay: Transient GUS reporter assay in transfected carrot protoplasts with VP16-EsaR effector; assay type: cell-based, Erwinia sterwartii; settings: for + inducer (average of the GUS activities): 25 [i M] OOHL, 36 hrs
Protocol: Plasmids for transfection were isolated and purified using Megaprep plasmid DNA isolation kit (Qiagen). Carrot protoplasts for transfections were prepared from carrot cell suspension culture and transfected with purified DNA as described (Ulmasov et al., Plant Cell 7:1611-1623, 1995). Briefly, 10 ì g of the reporter plasmid and 5 ìg of the effector plasmid were incubated with 10^6 protoplasts for five minutes at the room temperature in the presence of polyethylene glycol-calcium solution. After diluting approximately 10-fold with the culture medium, the protoplasts were incubated in the dark for 36 hours either in the presence or absence of the inducer 3-oxohexanoyl-homoserine lactone (OHHL, racemic mixture of the L- and D-isomers, purchased from Sigma Chemical Co., St Louis, MO). After incubation, protoplasts were collected by low-speed centrifugation, lysed and the level of GUS activity was measured using fluorometric GUS assay (Jefferson et al., EMBO J. 6:3901-3907, 1987).
Ten µg of the reporter plasmid (pMON53031), and indicated amount of the 35S effector plasmid per reaction was used for transfection in triplicate.

[3] = test system: VP16-TraR fusion (pMON53077); assay: GUS activity in transgenic Arabidopsis plants carrying GUS reporter and 35S-VP16-TraR activator genes; assay type: in vivo, Agrobacterium tumefaciens; settings: detached caulline leaves, 24 hours in MS medium with 100 µM HSL
Protocol: Transgenic Arabidopsis plants containing TraA8(3X)-GUS reporter and 35S-VP16-TraR activator genes (pMON53077) were analyzed for induction of GUS activity. […] GUS assays were conducted as described by Jefferson et al. (supra).
In addition, detached leaves incubated for 24 hours in MS medium with or without 100 µM HSL were visualized for induction of GUS activity after staining.

[4] = test system: TraR (expressed from GAL1 galactose inducible promoter, pGAL415TraR); assay: β-galactosidase reporter assay (chemiluminescent) in yeast expressing TraR; assay type: cell-based, Agrobacterium tumefaciens; settings: 50µM C8-HSL, 5 hrs of growth on galactose; strain YPH499, cl.5 and 6; minimal promoter with 3 copies of TraA8 element
TraM = settings: 12.5 µM C8-AHL; reporter TraA8(3X), cl.4 (60 µg) + TraM
Source text: Plasmids for transfection were isolated and purified using Megaprep plasmid DNA isolation kit (Qiagen).

[5] = 25 [i M] inducer (OOHL, or C6), reporter pMON53031, pMON53030 60 µg, 36 hrs
[6] = ratio of GUS activity at 12.5 µM to that at 5 µM
[7] = ratio of GUS activity at 75 µM to that at 25 µM
[8] = ratio of GUS activity at […] to that at 1 µM

“3-oxooctanoyl-L-homoserine lactone [C8-HSL]” was tested, and the “GUS activity, average ('- inducer')” value [1] was 1263.2, the “GUS activity, average (with AHL or analog at the stated concentration)” value [1] was 3018.7 and the “+ inducer (GUS activity, average)” value ([1]; reporter Tra box(3X), cl.5, second transfection) was 1576.2. For the same molecule, the “+ inducer (GUS activity, average)” value ([1]; reporter TraA1 (3X), cl.35, second transfection) was 1560.4, the “+ inducer (GUS activity, average)” value ([1]; reporter TraA2(3X), cl.43, second transfection) was 2057.1 and the “+ inducer (GUS activity, average)” value ([1]; reporter TraA3(3X), cl.4, second transfection) was 100.1. The “+ inducer (GUS activity, average)” value ([1]; reporter TraA4(3X), cl.23, second transfection) was 109.6, the “+ inducer (GUS activity, average)” value ([1]; reporter TraA5(3X), cl.2, second transfection) was 82.3 and the “+ inducer (GUS activity, average)” value ([1]; reporter TraA6(3X), cl.21, second transfection) was 3.2. For the same molecule, the “+ inducer (GUS activity, average)” value ([1]; reporter TraA7(3X), cl.15, second transfection) was 236.8, the “+ inducer (GUS activity, average)” value ([1]; reporter TraA8(3X), cl.4 (25µg) + TraR + CAT) was 762.2 and the “+ inducer (GUS activity, average)” value ([1]; reporter TraA8(3X), cl.4 (25µg) + TraR + TraM co-transfected) was 11.8. The “+ inducer (GUS activity, average)” value ([1]; reporter TraA8(3X), cl.4 (25µg) + TraR + TraS co-transfected) was 248.3, the “+ inducer (GUS activity, average)” value ([1]; reporter TraA8(3X), cl.4 (60 µg), effector printed as TraR) was 1665.3 and the “+ inducer (GUS activity, average)” value ([1]; reporter TraA8(3X), cl.4, second transfection) was 1759.1. The “+ inducer (GUS activity, average)” value ([1]; reporter TraA8(4X), cl. 16 + HA-VP16-TraR) was 1015.3, the “+ inducer (GUS activity, average)” value ([1]; reporter TraA10(3X), cl.17, second transfection) was 641.1 and the “+ inducer (GUS activity, average)” value ([1]; reporter TraA-1(3X), cl.14, second transfection) was 26.7. The “+ inducer (GUS activity, average)” value ([1]; reporter tra box (6X), cl.7, first transfection) was 987.4, the “+ inducer (GUS activity, average)” value ([1]; reporter traA1(3X), cl.35, first transfection) was 1941.5 and the “+ inducer (GUS activity, average)” value ([1]; reporter traA2(3X), cl.43, first transfection) was 2281.6. For the same molecule, the “+ inducer (GUS activity, average)” value ([1]; reporter traA3(3X), cl.4, first transfection) was 116.5, the “+ inducer (GUS activity, average)” value ([1]; reporter traA4(3X), cl.23, first transfection) was 122.8 and the “+ inducer (GUS activity, average)” value ([1]; reporter traA5(3X), cl.2, first transfection) was 20.5. The “+ inducer (GUS activity, average)” value ([1]; reporter traA6(3X), cl.21, first transfection) was 64.6, the “+ inducer (GUS activity, average)” value ([1]; reporter traA7(3X), cl.15, first transfection) was 234.8 and the “+ inducer (GUS activity, average)” value ([1]; reporter traA8(3X), cl.4, first transfection) was 888.0. For the same molecule, the “+ inducer (GUS activity, average)” value ([1]; reporter traA9(3X), cl.8, first transfection) was 63.7, the “GUS activity, average (+ inducer)” value ([1]; 12.5 µM of the AHL or analog) was 4142.8 and the “GUS activity, average” value [1] was 7642.9. For the same molecule, the “GUS activity, average” value ([1]; listed as CB-HSL) was 7523.9, the “GUS activity, average (+ inducer)” value ([1]; 75 µM of the AHL or analog) was 7975.7 and the “+ inducer (average of the GUS activities)” value ([1]; 0.1 [i M] OOHL, reporter pMON53031, pMON53030 60 µg, 36 hrs) was 355.9. For the same molecule, the “+ inducer (average of the GUS activities)” value ([1]; 0.5 [i M] OOHL, reporter pMON53031, pMON53030 60 µg, 36 hrs) was 698, the “+ inducer (average of the GUS activities)” value ([1]; 1 [i M] OOHL, reporter pMON53031, pMON53030 60 µg, 36 hrs) was 458.2 and the “+ inducer (average of the GUS activities)” value ([1]; 2.5 [i M] OOHL, reporter pMON53031, pMON53030 60 µg, 36 hrs) was 1487.8. For the same molecule, the “+ inducer (average of the GUS activities)” value ([1]; 5 [i M] OOHL, reporter pMON53031, pMON53030 60 µg, 36 hrs) was 1474.2, the “+ inducer (average of the GUS activities)” value ([1]; 12.5 [i M] OOHL, reporter pMON53031, pMON53030 60 µg, 36 hrs) was 1526.2 and the “+ inducer (average of the GUS activities)” value ([1]; 25 [i M] OOHL, reporter pMON53031, pMON53030 30 µg + CAT, 36 hrs) was 215.7. The “+ inducer (average of the GUS activities)” value [1, 5] was 1393.2, the “+ inducer (average of the GUS activities)” value ([1]; 50 [i M] OOHL, reporter pMON53031, pMON53030 60 µg, 36 hrs) was 1595.5 and the “+ inducer (average of the GUS activities)” value ([1]; 100 [i M] OOHL, reporter pMON53031 (traII box 3X-GUS) 10 µg, pMON53030 60 µg, 36 hrs) was 1446.4. For the same molecule, the “+ inducer (average of the GUS activities)” value ([2]; pMON53035 (lasB box 3X-GUS) + pMON53005 60 µg) was 4.9, the “+ inducer (average of the GUS activities)” value ([2]; reporter pMON53031, pMON53005 60 µg) was 764.1 and the “induction of GUS activity by histochemical GUS staining” value [3] was “uniform induced activity”. The “induction of β-gal activity in cell extracts” value [4] was “strong induction” and the “+ inducer (GUS activity, average)” value (TraM) was 98.0.

With `CCCC(=O)CC(=O)N[C@H]1CCOC1=O` [C6, N-(3-oxohexanoyl)-L-homoserine lactone] the Fold induction ([1]; 25 [i M] inducer (OOHL, or C6) vs no inducer, reporter pMON53031, pMON53030 60 µg, 36 hrs, 25 µM) was 1.6 fold, the “+ inducer (average of the GUS activities)” value [1, 5] was 568.5 and the “activation by the VP16-EsaR construct diminished by addition of the inducer” value ([2]; reporter esaR box (4X)-GUS pMON53009, dose-dependent, concentration not given, 36 hours) was “up to 3.3 fold”.

With `CCCCCC(=O)C(C)C(=O)N[C@@H](CCO)C(=O)O` (stereo partly drawn) [compound 7, N-(α-Methyl-b-ketooctanoyl)-(S)-homoserine] the “GUS activity, average ('- inducer')” value [1] was 180.2, the “GUS activity, average (with AHL or analog at the stated concentration)” value [1] was 1071.5 and the “GUS activity, average (+ inducer)” value ([1]; 12.5 µM of the AHL or analog) was 2746.0. For the same molecule, the “GUS activity, average” value [1] was 2486.3, the “GUS activity, average (+ inducer)” value ([1]; 75 µM of the AHL or analog) was 3209.7 and the “fold +/-” value [1, 6] was 2.6 fold. For the same molecule, the “fold +/-” value [1, 7] was 1.3 fold and the “fold +/-” value [1, 8] was 1.8 fold.

With `CCCCCC(=O)C(C)(C)C(=O)N[C@@H](CCO)C(=O)O` [compound 16, N-(α,α-Dimethyl-b-ketooctanoyl)-(S)-homoserine] the “GUS activity, average ('- inducer')” value [1] was 111.8, the “GUS activity, average (with AHL or analog at the stated concentration)” value [1] was 229.7 and the “GUS activity, average (+ inducer)” value ([1]; 12.5 µM of the AHL or analog) was 509.8. For the same molecule, the “GUS activity, average” value [1] was 1426.6, the “GUS activity, average (+ inducer)” value ([1]; 75 µM of the AHL or analog) was 4719.8 and the “fold +/-” value [1, 6] was 2.2 fold. The “fold +/-” value [1, 7] was 3.3 fold and the “fold +/-” value [1, 8] was 2.8 fold.

For `CCCCCC(=O)C(CC)C(=O)N[C@@H](CCO)C(=O)O` (stereo partly drawn) [compound 19, N-(α-Ethyl-b-ketooctanoyl)-(S)-homoserine], the “GUS activity, average ('- inducer')” value [1] was 469.6, the “GUS activity, average (with AHL or analog at the stated concentration)” value [1] was 2239.4 and the “GUS activity, average (+ inducer)” value ([1]; 12.5 µM of the AHL or analog) was 5377.3. For the same molecule, the “GUS activity, average” value [1] was 6732.3, the “GUS activity, average (+ inducer)” value ([1]; 78 µM as printed) was 7569.1 and the “fold +/-” value [1, 6] was 2.4 fold. For the same molecule, the “fold +/-” value ([1]; ratio of GUS activity at 78 µM to that at 25 µM) was 1.1 fold and the “fold +/-” value [1, 8] was 2.8 fold.

For `CCCCCC(=O)C(CCCC)C(=O)N[C@@H](CCO)C(=O)O` (stereo partly drawn) [compound 25, N-(α-Butyl-b-ketooctanoyl)-(S)-homoserine], the “GUS activity, average ('- inducer')” value [1] was 256.9, the “GUS activity, average (with AHL or analog at the stated concentration)” value [1] was 309.3 and the “GUS activity, average (+ inducer)” value ([1]; 12.5 µM of the AHL or analog) was 284.7. For the same molecule, the “GUS activity, average” value [1] was 224.2, the “GUS activity, average (+ inducer)” value ([1]; 75 µM of the AHL or analog) was 252.9 and the “fold +/-” value [1, 6] was 0.9 fold. The “fold +/-” value [1, 7] was 1.1 fold and the “fold +/-” value [1, 8] was 2.1 fold.

`CCCCCCC(C(C)=O)C(=O)N[C@@H](CCO)C(=O)O` (stereo partly drawn) [compound 26, N-(α-Hexyl-b-ketobutanoyl)-(S)-homoserine] was tested, and the “GUS activity, average ('- inducer')” value [1] was 184.7, the “GUS activity, average (with AHL or analog at the stated concentration)” value [1] was 387.6 and the “GUS activity, average (+ inducer)” value ([1]; 12.5 µM of the AHL or analog) was 1812.5. For the same molecule, the “GUS activity, average” value [1] was 1515.3, the “GUS activity, average (+ inducer)” value ([1]; 75 µM of the AHL or analog) was 2879.9 and the “fold +/-” value [1, 6] was 4.7 fold. The “fold +/-” value [1, 7] was 1.9 fold and the “fold +/-” value [1, 8] was 1.2 fold.
